Where two headings read alike, the source gives them in different places.
Assays:
[1] = tested on: Human mesenchymal stem cells (MSCs); experiment: MTT viability of Doxorubicin-induced senescent and non-senescent MSCs; type: cell-based; settings: for EC50: Homo sapiens, Mesenchymal stem cells, MTT
From the text: IMR90 and WI38 lung fibroblasts were purchased from ECACC‐Merck. Human bone marrow (BM)‐derived mesenchymal stromal cells (MSCs) were purchased from Lonza. Human umbilical vein endothelial cells (HUVECs) are primary cells obtained from a pool of donors purchased from Clonetics (Lonza). Murine ear fibroblasts (MearFs) were obtained from C57BL/6J mice maintained in the INRCA “Specific Pathogen Free” (SPF) animal facility. MCF7 breast cancer cells were purchased from ATCC. For dose–response curves, IMR90 and WI38 were induced to senescence through replicative passages; MSCs, HUVECs, and MearFs senescence was induced with Doxorubicin; MCF7 senescence was induced with 4‐Hydroxytamoxifen (Lee et al. [2014]). The EC50 was calculated using GraphPad Prism 10 software. All treatment specifications are reported in the extended section.
Cell viability was determined using an MTT assay. Absorbance was measured using a NB‐12‐0035 Microplate Reader (NeoBiotech Co.). Data are expressed as a percentage of viability compared with untreated cells.
Human bone marrow (BM)-derived mesenchymal stromal cells (MSCs) were purchased from Lonza (Allendale, NJ, USA) and cultured in α-MEM (Euroclone, Milano, Italy), with 10% fetal bovine serum (FBS, Lonza, Stein, Switzerland), 100 U/mL penicillin, […] streptomycin and 2 mM L-glutamine. Cells were seeded at a density of 5000/cm^2 and maintained at 37°C in a humidified atmosphere with 5% CO2. The culture medium was changed at 48 h intervals, and cells were trypsinized when almost 80% were confluent using 0.25% trypsin-EDTA (Euroclone, Milano, Italy). […]
Cell viability assay. Cell viability has been determined with MTT (3-(4,5-dimethylthiazol-2-yl)-2, 5-diphenyltetrazolium bromide) assay. […] Insoluble formazan salts produced were solubilized with DMSO incubation, and then absorbance was measured at 540 nm using a microplate reader (NB-12-0035 Microplate Reader, NeoBiotech Co., Seoul, Republic of Korea). Data are expressed as a percentage of viability compared with untreated cells (the control group has been considered 100% of viability).

MCF7 cells = experiment: SA-β-galactosidase colorimetric assay on Tamoxifen-treated MCF7; type: cell-based, Homo sapiens
Protocol: Previously treated cells were fixed according to the protocols established by the supplier (Cell Signaling). The images were acquired using an optical microscope (Leica) with 5× and 10× magnification (MAG) or the phase microscopy EVOS XL Core at 10× MAG and analyzed using the ImageJ software. The mean signal intensity was then normalized for the total number of cells.
MCF7 cell line (ATCC; HTB-22, Homo sapiens, breast cancer) was purchased from ATCC; cells were grown in MEM medium (Corning, New York, USA, #15-010-CVR) supplemented with 10% FBS (Gibco, Invitrogen, Carlsbad, CA, USA, #10270106), 1% glutamine (Corning #25005-CI), 1% penicillin and streptomycin (Corning #30002-CI). Cells were incubated at 37 °C with 5% CO2. […] Cell mortality and vitality curves after treatment with K5 (10 μM, orange) or Vehicle (DMSO, grey) were monitored using the Incucyte live-cell Analysis system (Sartorius, Goettingen, Germany). The estimated Senolytic index (SI) was calculated as the ratio between the EC50 in proliferating cells and the EC50 in senescent cells, extrapolated using GraphPad Prism 10 software.
β-galactosidase colorimetric assay. […] The images were analyzed using the ImageJ software, quantifying the colorimetric signal emitted by each cell. […]

## Cc1ccccc1-n1c(=O)n(Cc2ccccc2)c(=O)c2[nH]cnc21 [Compound K5, 1-benzyl-3-(2-methylphenyl)-7H-purine-2,6-dione]
[1]; DNA damage (Doxorubicin)
  Senolytic evidence (no, partly/yes): Partly
[1]; DNA damage (Doxorubicin), read-out: EC50 senescent cells
  EC50: > 200 µM
[1]; read-out: EC50 proliferating cells
  EC50: > 500 µM
MCF7 cells; MCF7, TAM 10 μM 96 h then K5 10 μM 24 to 96 h, Vehicle 40%
  SA-β-gal positive senescent cells: 10%
MCF7 cells; Tamoxifen-induced senescent MCF7
  reduced SA-β-gal: 30%
